Measured values from patent US6048853A, “1-arylphthalazine antagonists of excitatory amino acid receptors” (Bearsden Bio, Inc., priority 1996, dated 2000).
Where two headings read alike, the source gives them in different places.

Key:
Male NIH Swiss mice = assay: Maximum Electro Shock (MES) Seizure Test; format: in vivo
Description: This test is to determine the extent of protection by a test compound in a seizure model. This model is described by Rogawski et al. (Epilepsy Research, 15:179-184, 1993). Male NIH Swiss mice (25-30 g) were injected ip with the test drug. […] Animals failing to show tonic hind limb extension were scored as protected. Compounds may be selected which are active in this model.
The results of this assay using compounds prepared as described in Examples 49, 50 and 102 are shown below in Table 2.

Mice = assay: Subcutaneous Metrazol (scMET) Seizure Test; format: in vivo; details: dose 3 mg/kg; time 0.5 hr; Metrazol 90 mg/kg sc
Description: This test is to determine the extent of protection by a test compound in a seizure model. The method used is that of Chen et al. (Proc. Soc. Exp. Biol. Med., 87:334, 1954). Mice are randomly assigned to vehicle or treatment groups of 3-10 animals per group and then dosed accordingly. Metrazol (pentylenetetrazol) 90 mg/kg is administered subcutaneously (sc) at different time points (0.25, 0.5, 1, 2, 4 hr) after the treatment or control groups. The mice individually housed in clear runs and observed for the presence or absence of clonic seizure activity (>5 s duration) for 30 min after metrazol dosing. A compound is considered active if no seizure is observed. Data is analyzed using aquantal measure (protection/number tested).
The results of this assay using compounds prepared as described in Examples 49 and 50 are shown below in Table 3.

rat [1] = details: cited from earlier work
rat [2] = details: compared with NBQX; cited from earlier work

**Q.** Which “MES Score (protected/no. tested)” value (Male NIH Swiss mice; dose 100 mg/kg ip, time 4 hours) does the source give for `CC(=O)Nc1ccc(-c2nnc(C)c3cc4c(cc23)OCO4)cc1` [Example 102, 4-(4-acetylaminophenyl)-1-methyl-6,7-methylenedioxyphthalazine] here?
**A.** The value was 3/3.

**Q.** With `Nc1ccc(-c2nncc3cc4c(cc23)OCO4)cc1` [Example 49, 1-(4-Aminophenyl)-6,7-methylendioxyphthalazine] as the molecule, how does the “MES Score (protected/no. tested)” value (Male NIH Swiss mice; dose 3 mg/kg ip, time 0.5 hours) read?
**A.** The value was 1/1.

**Q.** And the “MES Score (protected/no. tested)” value (Male NIH Swiss mice; dose 15 mg/kg ip, time 2 hours)?
**A.** Its value is 2/4.

**Q.** And the “scMET Score (protect./no. tested)” value (Mice)?
**A.** The value was 1/5.

**Q.** For `Cc1nnc(-c2ccc(N)cc2)c2cc3c(cc12)OCO3` [Example 50, 4-(4-Aminophenyl)-1-methyl-6,7-methylenedioxyphthalazine], which “MES Score (protected/no. tested)” value (Male NIH Swiss mice; dose 1 mg/kg ip, time 4 hours) is on record?
**A.** The value was 1/7.

**Q.** And the “scMET Score (protect./no. tested)” value (Mice)?
**A.** The value was 1/5.

**Q.** With `CC1=NN=C(c2ccc(N)cc2)c2cc3c(cc2C1)OCO3` [GYKI 52466] as the molecule, how does the “reduction of cortical infarct volume” value (rat [1]; given continuously for 2 hours just after occlusion) read?
**A.** The value was 68%.

**Q.** And the “reduction of cortical infarct volume” value (rat [1]; given one hour after occlusion)?
**A.** Its value is 48%.

**Q.** And the “efficacy in global ischemia model” value (rat [2])?
**A.** The value was “as effective as the glutamate site competitive antagonist NBQX”.
